In patent US6541511B1, “Methyl analogs of simvastatin as novel HMG-CoA reductase inhibitors” (Ranbaxy Laboratories Limited, priority 2001, dated 2003):

What was measured:
HMG-CoA reductase [1] = molecular target: T1, HMG-CoA reductase (Homo sapiens, UniProt P04035); assay: in vitro HMG-CoA reductase inhibitory activity; type: biochemical
T1 sequence (P04035 1-888): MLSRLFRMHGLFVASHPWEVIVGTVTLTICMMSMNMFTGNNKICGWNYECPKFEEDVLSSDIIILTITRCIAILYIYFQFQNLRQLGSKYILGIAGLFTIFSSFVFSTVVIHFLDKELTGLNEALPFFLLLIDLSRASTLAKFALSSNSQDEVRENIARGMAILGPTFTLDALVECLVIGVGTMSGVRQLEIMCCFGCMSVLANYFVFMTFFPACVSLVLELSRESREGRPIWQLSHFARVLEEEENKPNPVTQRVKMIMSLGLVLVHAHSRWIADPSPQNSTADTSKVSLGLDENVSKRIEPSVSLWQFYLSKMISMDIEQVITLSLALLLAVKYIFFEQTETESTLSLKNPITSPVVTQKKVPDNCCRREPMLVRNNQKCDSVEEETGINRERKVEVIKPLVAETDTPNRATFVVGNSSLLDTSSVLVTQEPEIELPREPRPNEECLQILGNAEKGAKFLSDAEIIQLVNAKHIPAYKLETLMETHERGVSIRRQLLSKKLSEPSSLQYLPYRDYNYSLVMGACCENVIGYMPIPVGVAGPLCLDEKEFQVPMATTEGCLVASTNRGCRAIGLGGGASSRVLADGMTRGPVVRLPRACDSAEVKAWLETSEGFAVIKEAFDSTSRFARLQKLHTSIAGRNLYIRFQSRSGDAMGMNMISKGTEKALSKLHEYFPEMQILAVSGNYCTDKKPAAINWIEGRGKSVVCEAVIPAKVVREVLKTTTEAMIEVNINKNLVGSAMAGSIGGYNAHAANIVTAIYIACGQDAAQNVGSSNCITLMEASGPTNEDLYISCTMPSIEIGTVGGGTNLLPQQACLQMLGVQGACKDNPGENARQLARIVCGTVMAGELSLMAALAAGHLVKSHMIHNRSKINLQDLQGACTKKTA
Protocol: The in vivo and in vitro biological activity of the methyl analog of simvastatin isomeric compounds of structural formulae VIIc and VIIa was carried out on a HMG-CoA reductase inhibitory model. The compounds were tested at three concentrations (10^−5, 10^−7 and 10^−9 M) for the in vitro activity.

[2] = system: (14C) cholesterol synthesis from (14C) acetate; assay: in vivo inhibition of (14C) cholesterol prepared from 14C acetate in rats; details: for cholesterol lowering activity (in words): in vivo
Protocol: The in vivo experiments were conducted using radiolabelled (^14C) acetate which was administered to the rats converting it into (^14C) cholesterol. This synthesis was measured by quantitating (^14C) cholesterol inhibited by HMG-CoA reductase inhibitor.

HMG-CoA reductase [3] = molecular target: T1, HMG-CoA reductase; details: cited from earlier work

Row | % HMG-CoA reductase inhibition activity (HMG-CoA reductase [1]; concentration 10^-5 M) [%] | % HMG-CoA reductase inhibition activity (HMG-CoA reductase [1]; concentration 10^-7 M) [%] | % HMG-CoA reductase inhibition activity (HMG-CoA reductase [1]; concentration 10^-9 M) [%] | SMILES | % inhibition of (14C) cholesterol prepared from 14C acetate ([2]; 1 mg/kg i.p.) [%] | % inhibition of (14C) cholesterol prepared from 14C acetate ([2]; 1 mg/kg orally) [%] | % inhibition of (14C) cholesterol prepared from 14C acetate ([2]; 5 mg/kg orally) [%] | cholesterol lowering activity (in words) [2] | HMG-CoA reductase inhibitory activity (in words) (HMG-CoA reductase [1]; tested at 10^-5, 10^-7 and 10^-9 M) | potency relative to mevinolin (HMG-CoA reductase [3])
1 | 100 | 93 | 30 | CCC(C)(C)C(=O)O[C@H]1C[C@@H](C)C=C2C=C[C@H](C)[C@H](CC[C@@H]3C[C@@H](O)[C@@H](C)C(=O)O3)[C@H]21 [VIIa, 6(R)-[2-[8(S)-[[2,2-Dimethylbutanoyl]oxyl]-2(S),6(R)-dimethyl-1,2,6,7,8,8a(R)-hexahydro-1(S)-napthyl]ethyl]-3(R)-methyl,4(R)-hydroxy-3,4,5,6-tetrahydro-2H-pyran-2-one] | 10 | 0 | 69 | have cholesterol lowering activity | – | –
2 | 99 | 71 | 8 | CCC(C)(C)C(=O)O[C@H]1C[C@@H](C)C=C2C=C[C@H](C)[C@H](CC[C@@H]3C[C@@H](O)[C@H](C)C(=O)O3)[C@H]21 [VIIc, 6(R)-[2-[8(S)-[[2,2-Dimethylbutanoyl]oxyl]-2(S),6(R)-dimethyl-1,2,6,7,8,8a(R)-hexahydro-1(S)-napthyl]ethyl]-3(S)-methyl,4(R)-hydroxy-3,4,5,6-tetrahydro-2H-pyran-2-one] | 8 | 0 | 57 | have cholesterol lowering activity | significant HMG-CoA reductase inhibitory activity | –
3 | – | – | – | CCC(C)(C)C(=O)O[C@H]1C[C@@H](C)C=C2C=C[C@H](C)[C@H](CC[C@@H]3C[C@@H](O)CC(=O)O3)[C@H]21 [simvastatin] | – | – | – | – | – | twice as potent as mevinolin
